Results published in patent US5811408A, “2'-deoxy-2'-(substituted or unsubstituted)methylidene-4'-thionucleosides” (Yamasa Corporation, priority 1994, dated 1998).
In brackets after ≈: the same amount, converted by molar mass.

Columns and labels:
murine S-180 cells = assay: Antitumor Activity in Mice Implanted with S-180 Cells (in vivo test); conditions: ICR mice, caudal vein, days 1-5 and 7-10; for Weight of Tumor (mean value ± SE): tumor removed on day 35, control 8.70 ± 1.31; for Inhibitory Rate: tumor weight on day 35
Text: Antitumor Activity in Mice Implanted with S-180 Cells (in vivo test)
ICR mice were intraperitoneally inoculated with murine S-180 cells. On day 0, ascites was collected from the ICR mice, and Sarcoma 180 cells were subcutaneously implanted into ICR mice so that the number of the cells would be 5×10^6 /mouse. A sample was suspended in Macrogol-400/Tween 80 (6:0.8) so that the concentration thereof would be 10 times the concentration at the time of the administration thereof. Thereafter, the suspension was diluted to 1/10 with physiological saline, and injected once a day into the caudal vein of the mice on days 1-5, and on days 7-10. The antitumor effect (inhibitory rate) was evaluated by measuring the weight of the tumor removed on day 35.
The results of the test carried out by using the compound of the present invention (the beta-anomer of 2'-deoxy-2'-methylidene-4'-thiocytidine synthesized in Example 1) are shown in Table 3.

HCT-15 = assay: Proliferation Inhibitory Activity on Cultured Cells (in vitro test, MTT), HCT-15; type: cell-based; conditions: Homo sapiens; HCT-15, Colon adenocarcinoma; 72 hours, 37° C.
Experimental: (§1) Proliferation Inhibitory Activity on Cultured Cells (in vitro test)
(§2) Cells in the logarithmic growth phase were suspended in a medium for inoculation, and seeded into each well of a 96-well plate so that the number of the cells would be 3×10^3 /180 microliters/well. To each well was added 20 microliters of a sample solution or water, and incubation was carried out at 37° C. for 72 hours. After incubation, 25 microliters of an MTT solution (2 mg/ml, prepared in PBS) was added, and incubation was further conducted at 37° C. for 4 hours. The medium was removed, and the MTT-formazane formed was dissolved in 200 microliters of dimethyl sulfoxide. The absorbance at 540 nm of this solution was measured by a microplate reader. The proliferation inhibitory rate obtained by calculation was plotted on a graph paper against the concentration of the sample. Then, the 50% inhibitory concentration (IC50) was determined for evaluation of the antitumor effect.
(§3) The results of the test carried out by using the compound of the present invention (the beta-anomer of 2'-deoxy-2'-methylidene-4'-thiocytidine synthesized in Example 1) are shown in Table 1.

KKLS = assay: Proliferation Inhibitory Activity on Cultured Cells (in vitro test, MTT), KKLS; type: cell-based; conditions: Stomach adenocarcinoma, 72 hours, 37° C.
Experimental: as §1, §2, §3

SK-Mel-28 = assay: Proliferation Inhibitory Activity on Cultured Cells (in vitro test, MTT), SK-Mel-28; type: cell-based; conditions: Homo sapiens; SK-Mel-28, Melanoma; 72 hours, 37° C.
Experimental: as §1, §2, §3

HEp-2 = assay: Proliferation Inhibitory Activity on Cultured Cells (in vitro test, MTT), HEp-2; type: cell-based; conditions: Homo sapiens; HEp-2, Esophagus carcinoma; 72 hours, 37° C.
Experimental: as §1, §2, §3

MG-63 = assay: Proliferation Inhibitory Activity on Cultured Cells (in vitro test, MTT), MG-63; type: cell-based; conditions: Homo sapiens; MG-63, Osteosarcoma; 72 hours, 37° C.
Experimental: as §1, §2, §3

QG-90 = assay: Proliferation Inhibitory Activity on Cultured Cells (in vitro test, MTT), QG-90; type: cell-based; conditions: Homo sapiens; QG-90, Small cell lung carcinoma; 72 hours, 37° C.
Experimental: as §1, §2, §3

[1] = test system: murine P388 leukemia cells; assay: Antitumor Activity in mice bearing P388 leukemia (in vivo test); conditions: BDF1 mice, 10 mg/kg intraperitoneally once a day, Day 1, 2, 5, 6
Experimental: Antitumor Activity in mice bearing P388 leukemia (in vivo test)
DBA/2 mice were intraperitoneally inoculated with murine P388 leukemia cells. On day 0, ascites was collected from the DBA/2 mice, and P388 leukemia cells were intraperitoneally implanted into BDF1 mice so that the number of the cells would be 1×10^6 /mouse. A sample was dissolved in dimethyl sulfoxide, and this sample solution was intraperitoneally administered to the mice once a day. The antitumor effect was evaluated by comparing the survival time of the administered group with that of the control group.
The results of the test carried out by using the compound of the present invention (the beta-anomer of 2'-deoxy-2'-methylidene-4'-thiocytidine synthesized in Example 1) are shown in Table 2.

PC-10 = assay: Proliferation Inhibitory Activity on Cultured Cells (in vitro test, MTT), PC-10; type: cell-based; conditions: Homo sapiens, PC10; PC-10, Lung squamous cell carcinoma; 72 hours, 37° C.
Experimental: as §1, §2, §3

MCF-7 = assay: Proliferation Inhibitory Activity on Cultured Cells (in vitro test, MTT), MCF-7; type: cell-based; conditions: Homo sapiens, MCF7; MCF-7, Breast carcinoma; 72 hours, 37° C.
Experimental: as §1, §2, §3

Lu-65 = assay: Proliferation Inhibitory Activity on Cultured Cells (in vitro test, MTT), Lu-65; type: cell-based; conditions: Homo sapiens; Lu-65, Large cell lung carcinoma; 72 hours, 37° C.
Experimental: as §1, §2, §3

HOS = assay: Proliferation Inhibitory Activity on Cultured Cells (in vitro test, MTT), HOS; type: cell-based; conditions: Homo sapiens, Osteosarcoma, 72 hours, 37° C.
Experimental: as §1, §2, §3

NUGC-4 = assay: Proliferation Inhibitory Activity on Cultured Cells (in vitro test, MTT), NUGC-4; type: cell-based; conditions: Homo sapiens; NUGC-4, Stomach adenocarcinoma; 72 hours, 37° C.
Experimental: as §1, §2, §3

KK-47 = assay: Proliferation Inhibitory Activity on Cultured Cells (in vitro test, MTT), KK-47; type: cell-based; conditions: Homo sapiens; KK-47, Bladder carcinoma; 72 hours, 37° C.
Experimental: as §1, §2, §3

Mia-PaCa-2 = assay: Proliferation Inhibitory Activity on Cultured Cells (in vitro test, MTT), Mia-PaCa-2; type: cell-based; conditions: Homo sapiens; Mia-PaCa-2, Pancreas carcinoma; 72 hours, 37° C.
Experimental: as §1, §2, §3

A375 = assay: Proliferation Inhibitory Activity on Cultured Cells (in vitro test, MTT), A375; type: cell-based; conditions: Homo sapiens, A-375; A375, Melanoma; 72 hours, 37° C.
Experimental: as §1, §2, §3

Colo320DM = assay: Proliferation Inhibitory Activity on Cultured Cells (in vitro test, MTT), Colo320DM; type: cell-based; conditions: Homo sapiens, COLO 320DM, Colon adenocarcinoma, 72 hours, 37° C.
Experimental: as §1, §2, §3

HT1080 = assay: Proliferation Inhibitory Activity on Cultured Cells (in vitro test, MTT), HT1080; type: cell-based; conditions: Homo sapiens, HT-1080; HT1080, Soft tissue sarcoma; 72 hours, 37° C.
Experimental: as §1, §2, §3

QG-96 = assay: Proliferation Inhibitory Activity on Cultured Cells (in vitro test, MTT), QG-96; type: cell-based; conditions: QG-96, Small cell lung carcinoma; 72 hours, 37° C.
Experimental: as §1, §2, §3

## C=C1[C@H](n2ccc(N)nc2=O)S[C@H](CO)[C@H]1O [Compound of the Invention, 2'-deoxy-2'-methylidene-4'-thiocytidine]
Murine S-180 cells; 20 mg/kg/day
  Weight of Tumor (mean value ± SE): 6.39 ± 1.07
  Inhibitory Rate: 26.6%
Murine S-180 cells; 100 mg/kg/day
  Weight of Tumor (mean value ± SE): 0.80 ± 0.24
  Inhibitory Rate: 90.8%
HCT-15
  IC50: 0.65 µg/mL (≈ 2.55 µM)
KKLS
  IC50: 0.77 µg/mL (≈ 3.02 µM)
SK-Mel-28
  IC50: 0.092 µg/mL (≈ 0.36 µM)
HEp-2
  IC50: 4.1 µg/mL (≈ 16.1 µM)
MG-63
  IC50: 0.53 µg/mL (≈ 2.08 µM)
QG-90
  IC50: 0.32 µg/mL (≈ 1.25 µM)
[1]; control (DMSO) 9.0 days
  MST (Median survival time): 12.0 days
[1]; survival vs control (DMSO) = 100
  T/C: 133%
PC-10
  IC50: 1.5 µg/mL (≈ 5.88 µM)
MCF-7
  IC50: 0.3 µg/mL (≈ 1.18 µM)
Lu-65
  IC50: 0.075 µg/mL (≈ 0.294 µM)
HOS
  IC50: 0.45 µg/mL (≈ 1.76 µM)
NUGC-4
  IC50: 0.6 µg/mL (≈ 2.35 µM)
KK-47
  IC50: 0.38 µg/mL (≈ 1.49 µM)
Mia-PaCa-2
  IC50: 2.4 µg/mL (≈ 9.4 µM)
A375
  IC50: 0.25 µg/mL (≈ 0.979 µM)
Colo320DM
  IC50: 0.06 µg/mL (≈ 0.235 µM)
HT1080
  IC50: 0.21 µg/mL (≈ 0.823 µM)
QG-96
  IC50: 0.5 µg/mL (≈ 1.96 µM)
